Patent US20250154169A1, “COMPOUNDS AND METHODS FOR MODULATING SPLICING” (REMIX THERAPEUTICS INC., priority 2021, published 2025)
Read-outs that look alike come from different tables or passages of the source.

What was measured:
Assay type in all cases: cell-based, human
[1] = system: HTT mRNA; test: Splicing RT-qPCR gene panel, HTT canonical junction (CJ) mRNA; conditions: Tables 4A/4B, read-out: HTT (IC50, decrease in CJ mRNA, gene panel)
In short: (§1)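 A673/K562, 24 h cpd, 11-pt 3-fold from 10 uM, DMSO ≤0.25%. Lysis, direct RT-qPCR of CJ isoform, ≥duplicate. GAPDH/GUSB/PPIA norm, ΔΔCt vs DMSO → RQ → % response.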

[2] = system: HTT mRNA; test: Splicing RT-qPCR assay, HTT canonical (CJ) and alternative (AJ) junction mRNA
In short: (§2)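 Compound-induced exon inclusion is tracked as an increase in AJ transcript alongside the CJ transcript. Cells (A673 normalized to PPIA; K562 to GAPDH or GUSB) are dosed 24 h with a serial dilution topping at 10 uM, ≤0.25% DMSO, then lysed and analysed by RT-qPCR in at least duplicate.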

[3] = system: MYB mRNA; test: Splicing RT-qPCR assay, MYB canonical (CJ) and alternative (AJ) junction mRNA
In short: as §2

[4] = system: Target C mRNA; test: Splicing RT-qPCR gene panel, Target C canonical junction (CJ) mRNA; conditions: Tables 4A/4B, read-out: Target C (IC50, decrease in CJ mRNA, gene panel)
In short: as §1

[5] = system: SMN2 mRNA; test: Splicing RT-qPCR gene panel, SMN2 canonical junction (CJ) mRNA; conditions: Tables 4A/4B, read-out: SMN2 (IC50, decrease in CJ mRNA, gene panel)
In short: as §1

[6] = Homo sapiens, 24 h, A673 or K562 cells, 24 hours compound treatment, read-out: HTT CJ (IC50, decrease in canonical junction mRNA)
[7] = Homo sapiens, A673 or K562 cells, 24 hours compound treatment, read-out: HTT AJ (AC50, increase in alternative junction mRNA)
[8] = Homo sapiens, 24 h, A673 or K562 cells, 24 hours compound treatment, RT-qPCR, read-out: MYB AJ (AC50, increase in alternative junction mRNA)
[9] = Homo sapiens, 24 h, A673 or K562 cells, 24 hours compound treatment, RT-qPCR, read-out: MYB CJ (IC50, decrease in canonical junction mRNA)
[10] = Homo sapiens, Tables 4A/4B, canonical junction qPCR panel, read-out: MYB (IC50, decrease in CJ mRNA, gene panel)
[11] = Homo sapiens, Table 3B, alternative junction mRNA, read-out: HTT AJ (AC50, increase in AJ mRNA)
[12] = Homo sapiens, Table 3B, canonical junction mRNA, read-out: HTT CJ (IC50, decrease in CJ mRNA)
[13] = Homo sapiens, Table 3B, canonical junction mRNA, RT-qPCR, read-out: MYB CJ (IC50, decrease in CJ mRNA)
[14] = Homo sapiens, Table 3B, alternative junction mRNA, RT-qPCR, read-out: MYB AJ (AC50, increase in AJ mRNA)

Structure (SMILES) | IC50 ([1]; Homo sapiens) [nM] | IC50 [2, 6] [nM] | IC50 [3, 9] [nM] | IC50 [3, 10] [nM] | IC50 ([4]; Homo sapiens) [nM] | IC50 ([5]; Homo sapiens) [nM] | IC50 [2, 12] [nM] | IC50 [3, 13] [nM] | IC50 [1] [nM] | IC50 ([2]; Table 3B, canonical junction mRNA, read-out: HTT CJ (IC50, decrease in CJ mRNA)) [nM] | IC50 ([3]; Table 3B, canonical junction mRNA, RT-qPCR, read-out: MYB CJ (IC50, decrease in CJ mRNA)) [nM] | IC50 ([3]; Tables 4A/4B, canonical junction qPCR panel, read-out: MYB (IC50, decrease in CJ mRNA, gene panel)) [nM] | IC50 [4] [nM] | IC50 [5] [nM] | AC50 [2, 7] [nM] | AC50 [3, 8] [nM] | AC50 [2, 11] [nM] | AC50 [3, 14] [nM] | AC50 ([2]; Table 3B, alternative junction mRNA, read-out: HTT AJ (AC50, increase in AJ mRNA)) [nM] | AC50 ([3]; Table 3B, alternative junction mRNA, RT-qPCR, read-out: MYB AJ (AC50, increase in AJ mRNA)) [nM]
COCCCn1cc2c(N3CCNCC3)ccc(C(=O)Nc3cc(F)c4nc(C)cn4c3)c2n1 [Compound 302, N-{8-fluoro-2-methylimidazo[1,2-a]pyridin-6-yl}-2-(3-methoxypropyl)-4-(piperazin-1-yl)indazole-7-carboxamide] | 1000 to 10000 | 1000 to 10000 | < 100 | < 100 | > 10000 | < 100 |  |  |  |  |  |  |  |  | 1000 to 10000 | < 100 |  |  |  | 
CCN1CCC(c2ccc(C(=O)Nc3cc(F)c4nc(C)cn4c3)c3oc(C)cc23)CC1 [Compound 257] | 1000 to 10000 | 1000 to 10000 | 100 to 1000 | 100 to 1000 | > 10000 | < 100 |  |  |  |  |  |  |  |  | 1000 to 10000 | 100 to 1000 |  |  |  | 
Cc1cn2nc(NC(=O)c3ccc(N4CCNCC4)c4cc(C)oc34)nc2c(C)n1 [Compound 264] | > 10000 | > 10000 | > 10000 | > 10000 | > 10000 | > 10000 |  |  |  |  |  |  |  |  | > 10000 | > 10000 |  |  |  | 
Cc1cn2cc(NC(=O)c3ccc(N4CCNCC4)c4cn(CC(F)(F)F)nc34)cc(F)c2n1 [Compound 316, N-{8-fluoro-2-methylimidazo[1,2-a]pyridin-6-yl}-4-(piperazin-1-yl)-2-(2,2,2-trifluoroethyl)indazole-7-carboxamide] | > 10000 | > 10000 | 1000 to 10000 | 1000 to 10000 | > 10000 | 100 to 1000 |  |  |  |  |  |  |  |  | > 10000 | 100 to 1000 |  |  |  | 
CCc1nc2c(C(=O)Nc3cc(F)c4nc(C)cn4c3)ccc(N3CCNCC3)c2s1 [Compound 945] | 1000 to 10000 |  |  | < 100 | 1000 to 10000 | < 100 | 1000 to 10000 | < 100 |  |  |  |  |  |  |  |  | 1000 to 10000 | < 100 |  | 

The next lines start with results.

IC50 ([1]; Homo sapiens) [nM] | IC50 [2, 6] [nM] | IC50 [3, 9] [nM] | IC50 [3, 10] [nM] | IC50 ([4]; Homo sapiens) [nM] | IC50 ([5]; Homo sapiens) [nM] | IC50 [2, 12] [nM] | IC50 [3, 13] [nM] | IC50 [1] [nM] | IC50 ([2]; Table 3B, canonical junction mRNA, read-out: HTT CJ (IC50, decrease in CJ mRNA)) [nM] | IC50 ([3]; Table 3B, canonical junction mRNA, RT-qPCR, read-out: MYB CJ (IC50, decrease in CJ mRNA)) [nM] | IC50 ([3]; Tables 4A/4B, canonical junction qPCR panel, read-out: MYB (IC50, decrease in CJ mRNA, gene panel)) [nM] | IC50 [4] [nM] | IC50 [5] [nM] | Structure (SMILES) | AC50 [2, 7] [nM] | AC50 [3, 8] [nM] | AC50 [2, 11] [nM] | AC50 [3, 14] [nM] | AC50 ([2]; Table 3B, alternative junction mRNA, read-out: HTT AJ (AC50, increase in AJ mRNA)) [nM] | AC50 ([3]; Table 3B, alternative junction mRNA, RT-qPCR, read-out: MYB AJ (AC50, increase in AJ mRNA)) [nM]
1000 to 10000 |  |  | 100 to 1000 | 1000 to 10000 | < 100 | 1000 to 10000 | 100 to 1000 |  |  |  |  |  |  | CCn1cc2c(N3CCC(NC)C3)ncc(C(=O)Nc3cc(F)c4nc(C)cn4c3)c2n1 (stereo not drawn) [Compound 953] |  |  | 1000 to 10000 | 100 to 1000 |  | 
> 10000 | > 10000 | 1000 to 10000 | 1000 to 10000 | > 10000 | 100 to 1000 |  |  |  |  |  |  |  |  | CC(=O)NC1CCN(c2ccc(C(=O)Nc3cc(F)c4nc(C)cn4c3)c3nn(C)cc23)CC1 [Compound 328, 4-(4-acetamidopiperidin-1-yl)-N-{8-fluoro-2-methylimidazo[1,2-a]pyridin-6-yl}-2-methylindazole-7-carboxamide] | > 10000 | > 10000 |  |  |  | 
1000 to 10000 | 1000 to 10000 | 100 to 1000 | 100 to 1000 | 1000 to 10000 | < 100 |  |  |  |  |  |  |  |  | Cc1cn2cc(NC(=O)c3ccc(N4CCC(NC(C)(C)C)CC4)c4cn(C)nc34)cc(F)c2n1 [Compound 259] | 1000 to 10000 | 1000 to 10000 |  |  |  | 
 |  |  |  |  |  |  |  | 100 to 1000 | 100 to 1000 | < 100 | < 100 | 100 to 1000 | < 100 | CCc1cc2c(N3CCNCC3)ccc(C(=O)Nc3cc(F)c4nc(C)cn4c3)n2n1 [Compound 916] |  |  |  |  | 100 to 1000 | < 100
